# Measurements published in patent US20240150377A1, “MODULATORS OF CYSTIC FIBROSIS TRANSMEMBRANE CONDUCTANCE REGULATOR” (VERTEX PHARMACEUTICALS INCORPORATED, priority 2020, published 2024).
# Read-outs that look alike come from different tables or passages of the source.
# Target: T1, CFTR (Homo sapiens, UniProt P13569, DEL508-508)
# T1 construct: endogenous in cells; host or cells: primary human bronchial epithelial cells from CF subjects (F508del/MF-HBE), differentiated at air-liquid interface
# T1 sequence (P13569 with tags, fused parts or gaps DEL508-508): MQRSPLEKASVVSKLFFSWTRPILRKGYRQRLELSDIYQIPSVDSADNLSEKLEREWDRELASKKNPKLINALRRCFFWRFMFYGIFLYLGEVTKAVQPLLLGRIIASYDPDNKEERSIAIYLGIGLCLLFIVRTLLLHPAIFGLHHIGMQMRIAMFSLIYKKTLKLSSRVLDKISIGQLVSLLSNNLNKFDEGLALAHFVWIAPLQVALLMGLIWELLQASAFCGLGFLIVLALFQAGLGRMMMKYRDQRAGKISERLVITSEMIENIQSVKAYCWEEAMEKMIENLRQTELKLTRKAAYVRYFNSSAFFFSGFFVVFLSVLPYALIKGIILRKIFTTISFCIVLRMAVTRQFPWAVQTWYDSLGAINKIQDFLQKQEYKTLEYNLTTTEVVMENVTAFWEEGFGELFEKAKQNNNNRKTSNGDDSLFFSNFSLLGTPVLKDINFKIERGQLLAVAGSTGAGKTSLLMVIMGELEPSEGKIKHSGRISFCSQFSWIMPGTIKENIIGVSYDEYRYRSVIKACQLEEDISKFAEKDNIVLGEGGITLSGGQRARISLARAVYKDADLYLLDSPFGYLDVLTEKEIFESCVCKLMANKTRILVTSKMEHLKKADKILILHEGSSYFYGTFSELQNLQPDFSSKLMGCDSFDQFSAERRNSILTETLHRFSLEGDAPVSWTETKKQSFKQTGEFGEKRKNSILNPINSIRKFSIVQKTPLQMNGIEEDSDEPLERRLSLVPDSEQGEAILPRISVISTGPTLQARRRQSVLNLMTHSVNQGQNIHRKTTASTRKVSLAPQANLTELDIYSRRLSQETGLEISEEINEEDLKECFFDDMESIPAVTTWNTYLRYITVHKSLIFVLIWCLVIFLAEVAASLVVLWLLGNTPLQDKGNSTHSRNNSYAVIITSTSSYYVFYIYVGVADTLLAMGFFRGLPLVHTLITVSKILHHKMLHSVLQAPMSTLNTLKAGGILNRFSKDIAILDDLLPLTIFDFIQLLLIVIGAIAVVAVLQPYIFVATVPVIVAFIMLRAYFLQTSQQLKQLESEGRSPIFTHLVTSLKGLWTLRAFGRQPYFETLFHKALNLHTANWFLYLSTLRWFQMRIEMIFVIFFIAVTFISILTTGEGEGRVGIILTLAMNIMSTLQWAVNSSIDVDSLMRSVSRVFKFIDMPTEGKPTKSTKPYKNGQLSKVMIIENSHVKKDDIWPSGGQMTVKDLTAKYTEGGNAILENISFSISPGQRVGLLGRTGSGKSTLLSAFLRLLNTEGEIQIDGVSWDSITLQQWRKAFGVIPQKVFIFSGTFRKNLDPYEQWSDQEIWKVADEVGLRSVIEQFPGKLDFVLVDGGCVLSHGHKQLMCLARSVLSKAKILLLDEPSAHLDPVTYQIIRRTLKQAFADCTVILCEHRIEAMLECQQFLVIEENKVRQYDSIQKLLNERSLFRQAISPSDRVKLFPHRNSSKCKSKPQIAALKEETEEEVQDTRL
# Assay: HBE assay: Ussing chamber assay of CFTR-mediated short-circuit currents
# Format: cell-based
# Settings: for EC50: read-out: HBE EC50
# Method: 1. Ussing Chamber Assay of CFTR-Mediated Short-Circuit Currents
# (§1) Ussing chamber experiments were performed using human bronchial epithelial (HBE) cells derived from CF subjects heterozygous for F508del and a minimal function CFTR mutation (F508del/MF-HBE) and cultured as previously described (Neuberger T, Burton B, Clark H, Van Goor F Methods Mol Biol 2011:741:39-54). After four days the apical media was removed, and the cells were grown at an air liquid interface for >14 days prior to use.
# (§2) To isolate the CFTR-mediated short-circuit (ISC) current, F508del/MF-HBE grown on Costar® Snapwell™ cell culture inserts were mounted in an Ussing chamber and the transepithelial ISC was measured under voltage-clamp recording conditions (Vhold=0 mV) at 37° C. The basolateral solution contained (in mM) 145 NaCl, 0.83 K2HPO4, 3.3 KH2PO4, 1.2 MgCl2, 1.2 CaCl2), 10 Glucose, 10 HEPES (pH adjusted to 7.4 with NaOH) and the apical solution contained (in mM) 145 NaGluconate, 1.2 MgCl2, 1.2 CaCl2), 10 glucose, 10 HEPES (pH adjusted to 7.4 with NaOH) and 30 μM amiloride to block the epithelial sodium channel. Forskolin (20 μM) was added to the apical surface to activate CFTR, followed by apical addition of a CFTR inhibitor cocktail consisting of BPO, GlyH-101, and CFTR inhibitor 172 (each at 20 μM final assay concentration) to specifically isolate CFTR currents. The CFTR-mediated ISC (μA/cm^2) for each condition was determined from the peak forskolin response to the steady-state current following inhibition.
# 2. Identification of Corrector Compounds
# The activity of the CFTR corrector compounds on the CFTR-mediated ISC was determined in Ussing chamber studies as described above. The F508del/MF-HBE cell cultures were either incubated with the corrector compounds at a range of concentrations in combination with 1 μM Ivacaftor or were incubated with the corrector compounds at a single fixed concentration of 10 μM in combination with 1 μM Ivacaftor for 18-24 hours at 37° C. and in the presence of 20% human serum. The concentration of corrector compounds with 1 μM Ivacaftor during the 18-24 hours incubations was kept constant throughout the Ussing chamber measurement of the CFTR-mediated ISC to ensure compounds were present throughout the entire experiment.
# Ussing Chamber Assay of CFTR-mediated short-circuit currents
# as §1, with “(HIBE)” for “(HBE)”, “(F508del/MIF-HIBE)” for “(F508del/MF-HBE)”
# as §2, with “KH2PO4,” for “K2HPO4,”
# Identification of Corrector Compounds
# [1] = Table 11, at 10 μM, read-out: HBE Activity at 10 μM (%)
# [2] = Table 10, read-out: HBE Max activity (%)
# [3] = Table 11, read-out: HBE Max Activity (%)
SMILES,activation at 10 µM [1] [%],EC50 (Table 10) [nM],Emax [2] [%],EC50 (Table 11) [nM],Emax [3] [%],also measured
"Cc1cccc(C)c1-c1cc2nc(n1)NS(=O)(=O)c1cccc(c1)C(=O)N(CC1CC(C)(C)CO1)[C@H](CC(C)(C)C)CO2 (stereo partly drawn) [Compound 21, (11R)-12-[(4,4-Dimethyloxolan-2-yl)methyl]-6-(2,6-dimethylphenyl)-11-(2,2-dimethylpropyl)-9-oxa-2λ^6-thia-3,5,12,19-tetraazatricyclo[12.3.1.14,8]nonadeca-1(17),4(19),5,7,14(18),15-hexaene-2,2,13-trione]",> 60,–,–,–,–,–
"Cc1cccc(C)c1-c1cc2nc(n1)NS(=O)(=O)c1cccc(c1)C(=O)N(CC1CC(C)(C)OC(C)(C)C1)[C@H](CC(C)(C)C)CO2 [Compound 30, (11R)-6-(2,6-Dimethylphenyl)-11-(2,2-dimethylpropyl)-12-[(2,2,6,6-tetramethyloxan-4-yl)methyl]-9-oxa-2λ^6-thia-3,5,12,19-tetraazatricyclo[12.3.1.14,8]nonadeca-1(18),4,6,8(19),14,16-hexaene-2,2,13-trione]",> 60,–,–,–,–,–
"Cc1cccc(C)c1-c1cc2nc(n1)NS(=O)(=O)c1cccc(c1)C(=O)N(Cc1ccc(C3CCCCC3)cn1)[C@H](CC(C)(C)C)CO2 [Compound 50, (11R)-12-[(5-Cyclohexyl-2-pyridyl)methyl]-6-(2,6-dimethylphenyl)-11-(2,2-dimethylpropyl)-2,2-dioxo-9-oxa-2λ^6-thia-3,5,12,19-tetrazatricyclo[12.3.1.14,8]nonadeca-1(18),4(19),5,7,14,16-hexaen-13-one]",–,1000 to 3000,> 60,–,–,–
"Cc1cccc(C)c1-c1cc2nc(n1)NS(=O)(=O)c1cccc(c1)C(=O)N(Cc1ccc(OCC(C)(C)O)cn1)[C@H](CC(C)(C)C)CO2 [Compound 51, (11R)-6-(2,6-Dimethylphenyl)-11-(2,2-dimethylpropyl)-12-[[5-(2-hydroxy-2-methyl-propoxy)-2-pyridyl]methyl]-2,2-dioxo-9-oxa-2λ^6-thia-3,5,12,19-tetrazatricyclo[12.3.1.14,8]nonadeca-1(18),4(19),5,7,14,16-hexaen-13-one]",> 60,–,–,< 1000,> 60,–
"Cc1cccc(C)c1-c1cc2nc(n1)NS(=O)(=O)c1cccc(c1)C(=O)N(Cc1ccc(C3CCOCC3)cn1)[C@H](CC(C)(C)C)CO2 [Compound 52, (11R)-6-(2,6-Dimethylphenyl)-11-(2,2-dimethylpropyl)-2,2-dioxo-12-[(5-tetrahydropyran-4-yl-2-pyridyl)methyl]-9-oxa-2λ^6-thia-3,5,12,19-tetrazatricyclo[12.3.1.14,8]nonadeca-1(18),4(19),5,7,14,16-hexaen-13-one]",–,–,–,< 1000,> 60,–
"Cc1cccc(C)c1-c1cc2nc(n1)NS(=O)(=O)c1cccc(c1)C(=O)N(Cc1ncccc1-c1cn[nH]c1)[C@H](CC(C)(C)C)CO2 [Compound 53, (11R)-6-(2,6-Dimethylphenyl)-11-(2,2-dimethylpropyl)-2,2-dioxo-12-[[3-(1H-pyrazol-4-yl)-2-pyridyl]methyl]-9-oxa-2λ^6-thia-3,5,12,19-tetrazatricyclo[12.3.1.14,8]nonadeca-1(18),4(19),5,7,14,16-hexaen-13-one]",–,< 1000,> 60,–,–,"activation at 10 µM (Table 10, at 10 μM, read-out: HBE activity at 10 (μM) (%)): > 60%"
"Cc1cccc(C)c1-c1cc2nc(n1)NS(=O)(=O)c1cccc(c1)C(=O)N(Cc1ncccc1O)[C@H](CC(C)(C)C)CO2 [Compound 54, (11R)-6-(2,6-Dimethylphenyl)-11-(2,2-dimethylpropyl)-12-[(3-hydroxy-2-pyridyl)methyl]-2,2-dioxo-9-oxa-2λ^6-thia-3,5,12,19-tetrazatricyclo[12.3.1.14,8]nonadeca-1(18),4(19),5,7,14,16-hexaen-13-one]",–,< 1000,> 60,–,–,–
"Cc1cccc(C)c1-c1cc2nc(n1)NS(=O)(=O)c1cccc(c1)C(=O)N(Cc1ccc(N3CCOCC3)nc1)[C@H](CC(C)(C)C)CO2 [Compound 60, (11R)-6-(2,6-Dimethylphenyl)-11-(2,2-dimethylpropyl)-12-[(6-morpholino-3-pyridyl)methyl]-2,2-dioxo-9-oxa-2λ^6-thia-3,5,12,19-tetrazatricyclo[12.3.1.14,8]nonadeca-1(18),4(19),5,7,14,16-hexaen-13-one]",–,< 1000,> 60,–,–,–
"Cc1cccc(C)c1-c1cc2nc(n1)NS(=O)(=O)c1cccc(c1)C(=O)N(Cc1cncc(N(C)CC(C)(C)C)n1)[C@H](CC(C)(C)C)CO2 [Compound 62, (11R)-6-(2,6-Dimethylphenyl)-11-(2,2-dimethylpropyl)-12-({6-[(2,2-dimethylpropyl)(methyl)amino]pyrazin-2-yl}methyl)-9-oxa-2λ^6-thia-3,5,12,19-tetraazatricyclo[12.3.1.14,8]nonadeca-1(18),4,6,8(19),14,16-hexaene-2,2,13-trione]",–,–,–,< 1000,> 60,–
"Cc1cccc(C)c1-c1cc2nc(n1)NS(=O)(=O)c1cccc(c1)C(=O)N(CC1CC(N3CC(C)OC(C)C3)C1)[C@H](CC(C)(C)C)CO2 (stereo partly drawn) [Compound 65, (11R)-12-[[3-(2,6-Dimethylmorpholin-4-yl)cyclobutyl]methyl]-6-(2,6-dimethylphenyl)-11-(2,2-dimethylpropyl)-2,2-dioxo-9-oxa-2λ^6-thia-3,5,12,19-tetrazatricyclo[12.3.1.14,8]nonadeca-1(18),4(19),5,7,14,16-hexaen-13-one]",–,–,–,–,–,activation at 10 µM (read-out: HBE Activity at 10 μM (%)): > 60%
"Cc1cccc(C)c1-c1cc2nc(n1)NS(=O)(=O)c1cccc(c1)C(=O)N(CC1CCN(c3ncccn3)CC1)[C@H](CC(C)(C)C)CO2 [Compound 109, (11R)-6-(2,6-Dimethylphenyl)-11-(2,2-dimethylpropyl)-2,2-dioxo-12-[(1-pyrimidin-2-yl-4-piperidyl)methyl]-9-oxa-2λ^6-thia-3,5,12,19-tetrazatricyclo[12.3.1.14,8]nonadeca-1(18),4(19),5,7,14,16-hexaen-13-one]",–,< 1000,> 60,–,–,–
"Cc1cccc(C)c1-c1cc2nc(n1)NS(=O)(=O)c1cccc(c1)C(=O)N(CCc1cccc(N3CCOCC3)n1)[C@H](CC(C)(C)C)CO2 [Compound 110, (11R)-6-(2,6-Dimethylphenyl)-11-(2,2-dimethylpropyl)-12-[2-(6-morpholino-2-pyridyl)ethyl]-2,2-dioxo-9-oxa-2λ^6-thia-3,5,12,19-tetrazatricyclo[12.3.1.14,8]nonadeca-1(18),4(19),5,7,14,16-hexaen-13-one]",> 60,–,–,< 1000,> 60,–
"Cc1cccc(C)c1-c1cc2nc(n1)NS(=O)(=O)c1cccc(c1)C(=O)N(CCc1ccc(C3CCCCC3)cn1)[C@H](CC(C)(C)C)CO2 [Compound 112, (11R)-12-[2-(5-Cyclohexyl-2-pyridyl)ethyl]-6-(2,6-dimethylphenyl)-11-(2,2-dimethylpropyl)-2,2-dioxo-9-oxa-2λ^6-thia-3,5,12,19-tetrazatricyclo[12.3.1.14,8]nonadeca-1(18),4(19),5,7,14,16-hexaen-13-one]",–,–,–,< 1000,> 60,–
